Laboratory results published in patent US8420810B2, “Bicyclic heterocyclic compound” (Ono Pharmaceutical, Co., Ltd., priority 2007, dated 2013).

How the values were obtained:
human CRF receptor I [1] = target: T1, human CRF receptor I (Homo sapiens, UniProt P34998); experiment: Receptor antagonistic activity (cyclic AMP assay); format: cell-based; settings: accumulated cyclic AMP, human/rat CRF stimulation, cells expressing human CRF receptor I, 37° C. 15 minutes
T1 construct: expressed in transfected cells; host or cells: CHO-K1
T1 sequence (P34998 24-415): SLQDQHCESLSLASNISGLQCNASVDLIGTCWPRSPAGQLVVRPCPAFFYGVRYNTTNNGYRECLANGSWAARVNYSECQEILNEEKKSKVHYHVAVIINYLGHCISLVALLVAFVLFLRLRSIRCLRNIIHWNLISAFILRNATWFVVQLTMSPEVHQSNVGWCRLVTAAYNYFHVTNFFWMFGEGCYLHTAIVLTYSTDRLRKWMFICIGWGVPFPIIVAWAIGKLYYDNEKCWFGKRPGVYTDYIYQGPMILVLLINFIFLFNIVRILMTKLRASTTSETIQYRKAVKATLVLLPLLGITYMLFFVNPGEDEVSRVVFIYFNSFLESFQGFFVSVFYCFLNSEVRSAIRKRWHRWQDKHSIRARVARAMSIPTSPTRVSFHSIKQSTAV
Method: The forced expression cell strain of the human CRF receptor I was cultured at 37° C. under 5% carbon dioxide and 95% air by using a Ham's F-12 medium (F-12 nutrient mixture) containing 10% bovine fetal serum and 1% antibiotic substance-antifungal agent. On the previous day before the cyclic AMP was measured, the cells were inoculated into a 96-well plate in an amount of 1×10^4 cell/well. On the measurement day, the cells were washed twice with a Ham's F-12 medium, whereby a solution of Ham's F-12 medium/1 mM 3-isobutyl-1-methylxanthine (assay medium) (178 μL) was added to each well. After the incubation at 37° C. for 15 minutes, the solutions (2 μL) of evaluation compound in various concentrations were added thereto, or DMSO (2 μL) was added to a CRF group and a blank group. An assay medium (20 μL) containing 10 nM human/rat CRF was added to wells of an evaluation compound group and the CRF group. An assay medium (20 μL) containing 0.00001% acetic acid was added to the blank group. Each group was further incubated at 37° C. for 15 minutes. The supernatant was removed and ice-colded to stop the reaction. Note that the reactions of 2 wells were the same in all reactions. The measurement for accumulated cyclic AMP amount in cells was carried out by using a cyclic AMP Biotrak enzyme immunoassay system (manufactured by GE Healthcare). The accumulated cyclic AMP amounts were calculated by subtracting mean values of corresponding 2 wells in the blank group from that of 2 wells. The IC50 values were calculated with non-linear regression analysis by defining logarithm concentration of the evaluation compound as independent variable and an accumulated cyclic AMP amount as dependent variable.

Male Wistar rats = experiment: Water aversive stress model in rats; format: in vivo, rat; settings: 3 mg/kg, oral once 30 minutes before stress, 60 minutes after loading the water aversive stress
Method: Male Wistar rats of 7 weeks of age were used in the test. A platform of 8.5 cm in diameter and 11 cm in height was arranged in the center of a plastic container (30 cm in length, 45 cm in width, 37 cm in height), and water was filled therein to a depth of about 10 cm. Each rat was put on the platform, and the number of evacuations was counted 5, 30 and 60 minutes thereafter. To the vehicle group, 20% Wellsolve (registered trademark) was orally administered, and an evaluation compound having varied concentrations was orally administered to the evaluation compound group, once 30 minutes before loading the water aversive stress. The dose was set to be 5 ml/kg for both cases.

human CRF receptor I [2] = target: T1, human CRF receptor I; experiment: Binding assay (125I-CRF, membrane fraction); settings: 125I-CRF 0.25 nM, membrane fraction of CHO-K1 cells expressing human CRF receptor I, room temperature 2 hours
Method: The forced-expression cell strain of the human CRF receptor I (parent strain is CHO-K1 cell) was cultured until the cell was confluent and collected with a scraper. The collected cells were washed twice with PBS, and were suspended with an ice-colded binding assay buffer (Tris-HCl (50 mM, pH 7.0), EDTA (2 mM, pH 8.0), and MgCl2 (10 mM)). After fractured with a dounce-type homogenizer, the suspended cells were centrifuged at 10,000 g, and a membrane fraction was collected. The collected membrane fraction was resuspended with a little amount of the binding assay buffer, thereafter diluted with the binding assay buffer so as to have a concentration of 1 mg/mL. The obtained membrane fraction was used for a binding assay.
^125I-CRF was diluted with the binding assay buffer so as to have a concentration of 0.5 nM, whereby 50 μL of the diluted ^125I-CRF was added to a siliconized 1.5 mL tube. Next, evaluation compounds diluted at appropriate times, DMSO (for general binding), or 100 μM of CRF (for non-specific binding), was added to a […]. Finally, 50 μL of the membrane fraction was added thereto and the reaction was started (final concentration of ^125I-CRF was 0.25 nM). The tube was incubated at room temperature for 2 hours. After the reaction, the tube was centrifuged at 20,000 g in order to collect the membrane fraction. The supernatant was discarded, and the pellet was washed with an ice-colded PBS/0.01% TritonX-100. A membrane binding count was measured using a y counter. The specific binding count was obtained by subtracting the non-specific count from the measured count.

[3] = Stability test under acidic condition; format: physicochemical; settings: ethanol solution / Pharmacopoeia first liquid 1 to 1, 37° C., 24 hours, HPLC
Method: A 1 mg/ml ethanol solution of an evaluation compound and the test liquid first liquid of the disintegration test of The Pharmacopoeia of Japan (to be referred to as Pharmacopoeia first liquid hereinafter) were mixed at a ratio of 1 to 1 (0.5 ml for each) and stirred at 37° C. for 24 hours. Amount of the evaluation compound at 0 minute or after 24 hours was determined by an HPLC apparatus. Survival rate (%) of the evaluation compound was calculated by the following formula. Survival rate of evaluation compound (%)=amount of evaluation compound after 24 hours of treatment with Pharmacopoeia first liquid/amount of evaluation compound just after treatment with Pharmacopoeia first liquid×100 <HPLC Conditions> • Apparatus: A 1200 series (manufactured by Agilent Technologies, Inc.), • Column: YMC-Pack C4, A-802, 150×4.6 mm I.D., S-5 μm, 120 A (manufactured by YMC), • Mobile phase: A: water, B: acetonitrile, A/B: 35/65, • Column temperature: room temperature, • Flow rate: 1.0 mL/min.

Light stability test = format: physicochemical; settings: 2500 Lux (D65 lamp), 25° C., HPLC
Method: After weighing 5 mg of an evaluation compound, it was put into a test tube made of glass which was then sealed with a stop cock. Said test tube was stored at 25° C. for 11 days or 20 days under irradiation of 2500 Lux (a D65 lamp was used as the light source). The evaluation compound after 11 days or 20 days of irradiation was determined by an HPLC apparatus. Survival rate (%) of the evaluation compound was calculated by the following formula. Survival rate of evaluation compound (%)=amount of evaluation compound after 11 days or 20 days of irradiation (mg)/weighed value of evaluation compound (mg)×100 <HPLC Conditions> • Apparatus: A 1200 series (manufactured by Agilent Technologies, Inc.), • Column: YMC-Pack C4, A-802, 150×4.6 mm I.D., S-5 μm, 120 A (manufactured by YMC), • Mobile phase: A: water, B: acetonitrile, A/B: 35/65, • Column temperature: room temperature, • Flow rate: 1.0 mL/min.

## CCn1c(-c2ccc(SC)cc2Cl)nn2c(C)cc(C(C)C)c2c1=O [Example 14(2), 2-[2-chloro-4-(methylthio)phenyl]-3-ethyl-5-isopropyl-7-methylpyrrolo[2,1-f][1,2,4]triazin-4(3H)-one]
Human CRF receptor I [1]
  IC50: 2.1 nM
Male Wistar rats
  increase of the number of evacuations for the vehicle group: significantly inhibited
Human CRF receptor I [2]
  IC50: 4.5 nM

## CCC(CC)c1cc(C)n2nc(-c3ccc(OC)cc3C)n(C)c(=O)c12 [Example 8(1), 5-(1-ethylpropyl)-2-(4-methoxy-2-methylphenyl)-3,7-dimethylpyrrolo[2,1-f][1,2,4]triazin-4(3H)-one]
[3]
  residual ratio: 90%
Light stability test
  residual ratio after 20 days: 93%
